From article PMC5706100 (Theranostics, 2017)
Positions of bridges follow the written chain, without caps; N, C: chain ends. No end group written: not given here.

Legend:
[1] = test system: CD31-positive plaque neovascularization; assay: Immunofluorescence of FITC-GEBP11 and CD31 in plaque tissue sections; design: species or system rabbit
[2] = test system: EAhy926 cells; assay: Immunofluorescence staining of FITC-GEBP11 in hypoxia-treated cells; format: cell-based; details: FITC-labelled peptide, after hypoxia treatment

CTKNSYLMC (disulfide 1-9 (inferred)) [GEBP11 peptide]
cell selectivity by immunofluorescence staining ([1]; endothelial cells versus macrophages): selectively target endothelial cells rather than macrophages
co-localization with CD31 in plaque section ([1]; rabbit plaque tissue sections, confocal microscopy): well co-localized with CD31-positive plaque neovascularization and vasa vasorum
binding affinity to EAhy926 cells [2]: high binding affinity
